# Laboratory results published in article PMC4063695, “Design of Embedded-Hybrid Antimicrobial Peptides with Enhanced Cell Selectivity and Anti-Biofilm Activity” (PLoS ONE, 2014).
# No end group written: not given here.
# What was measured:
# [1] = tested on: Gram-negative and Gram-positive strains; assay: MIC over all tested strains (range, geometric mean); assay type: cell-based; set-up: GM (geometric mean of MIC values from all microbial strains): unit not given here; settings: all strains of Table 2
# Text: (§1) E. coli ATCC25922, P. aeruginosa ATCC27853, S. aureus ATCC29213, S. epidermidis ATCC12228, S. faecalis ATCC29212 and B. subtilis CMCC63501 were obtained from the College of Veterinary Medicine, Northeast Agricultural University (Harbin, China), E. coli K88, E. coli CVCC1515 and P. aeruginosa ATCC15442 were bestowed by Prof. J.H. Wang (Gene Engineering Laboratory, Feed Research Institute, Chinese Academy of Agricultural Sciences Beijing, China) and E. coli UB1005 was kindly provided by Prof. Q.S. Qi (State Key Laboratory of Microbial Technology, Shandong University, China). […] Briefly, 50 µl of approximate 0.5–1 × 10^6 colony forming units (CFU)/ml of cells were diluted in Mueller-Hinton broth and distributed to 96-well plate, 50 µl of twofold peptides were added and the plates was incubated at 37°C for 18–24 h. The MIC values were calculated as the lowest peptide concentration that prevented visible turbidity and negative control of the pure broth without microbes. The tests were performed at least three times in duplicate.
# [2] = tested on: P. aeruginosa ATCC27853; assay: MIC in the presence of physiological salts; assay type: cell-based, Pseudomonas aeruginosa; set-up: unit not given here
# Text: as §1
# (§2) The stability of peptides was tested in the MIC assay in different environments, including salt sensitivity, human serum, thermal stability and susceptibility to enzymes. For salt sensitivity, 0.5–1 × 10^6 CFU/ml of P. aeruginosa ATCC27853 and E. coli ATCC25922 were treated with peptides, while different salts were added to MHB, and the final concentrations of physiological salts were as follows: 150 mM NaCl, 4.5 mM KCl, 1 mM MgCl2, 6 µM NH4Cl, 8 µM ZnCl2, 4 µM FeCl3 and […] [33]. Except salt sensitivity, only E. coli ATCC25922 was treated with peptides. […] For testing peptide sensitivity to the proteolytic enzymes, the peptides were incubated in advance at 37°C for 1 h with a 1 mg/ml final concentration of the proteolytic enzymes (trypsin, pepsin, papain and proteinase K). For testing thermal stability, incubation occurred at 100°C for 1 h. After these treatments, the procedures were same as MIC assay described above.
# [3] = tested on: E. coli ATCC25922; assay: MIC after treatment with serum, enzymes and heat; assay type: cell-based, Escherichia coli
# Text: as §1, §2
# [4] = tested on: human red blood cells (hRBC); assay: Hemolytic activity; assay type: cell-based; settings: minimum concentration that caused 5% hemolysis of hRBC (footnote); 1% hRBC in PBS pH 7.4, 1 h, 37°C, OD 492 nm
# Method: The amount of released hemoglobin by the lysis of erythrocytes was measured for hemolytic activity of peptides. Human erythrocytes were obtained from a healthy donor with written informed consent. The experimental protocol was reviewed and approved by the ethics committee of the Northeast Agricultural University Hospital. The measurement was based on a previously described method. The fresh hRBCs were washed three times by centrifugation (1000 g, 5 min, 4°C) in PBS (pH 7.4), and then resuspended in PBS to obtain the erythrocyte with a dilution of approximately 1% (v/v). Then, 50 µL of hRBCs solution was incubated with 50 µL of different concentrations of the peptides dissolved in PBS for 1 h at 37°C, before centrifugation (1000 g, 5 min, 4°C) again. The absorbance of the supernatants was measured at optical density (OD) 492 nm. […] The control samples for 0% and 100% hemolysis consisted of hRBCs in PBS (Ablank) only and in 0.1% Triton X-100 (Atriton), respectively. The percentage of hemolysis was calculated according to the following equation: [drawing 3]
# [5] = tested on: E. coli CVCC1515; settings: E. coli CVCC1515; MHB, 37°C, 18-24 h; at least three times in duplicate
# Text: as §1
# [6] = tested on: P. aeruginosa ATCC15442; settings: P. aeruginosa ATCC15442; MHB, 37°C, 18-24 h; at least three times in duplicate
# Text: as §1
# [7] = tested on: E. coli UB1005; settings: E. coli UB1005; MHB, 37°C, 18-24 h; at least three times in duplicate
# Text: as §1
# [8] = tested on: P. aeruginosa variant 1; settings: P. aeruginosa variant 1, obtained by step-wise culture with ciprofloxacin hydrochloride; MHB, 37°C, 18-24 h
# Text: as §1
# [9] = tested on: S. typhimurium ATCC14028; settings: S. typhimurium ATCC14028; MHB, 37°C, 18-24 h; at least three times in duplicate
# Text: as §1
# [10] = tested on: E. coli ATCC25922; settings: E. coli ATCC25922; MHB, 37°C, 18-24 h; at least three times in duplicate
# Text: as §1
# [11] = tested on: B. subtilis CMCC63501; settings: B. subtilis CMCC63501; MHB, 37°C, 18-24 h; at least three times in duplicate
# Text: as §1
# [12] = tested on: P. aeruginosa variant 2; settings: P. aeruginosa variant 2, obtained by step-wise culture with gentamicin; MHB, 37°C, 18-24 h
# Text: as §1
substance,measurement,setting,value
RFRRLFRIRVRVLKKI-NH2 [R-FV-I16],GM (geometric mean of MIC values from all microbial strains),[1],2
same,"MIC, CaCl2",[2]; 2.5 µM CaCl2 in MHB,4
same,"MIC, FeCl3",[2]; 4 µM FeCl3 in MHB,4
same,"MIC, NH4Cl",[2]; 6 µM NH4Cl in MHB,4
same,"MIC, ZnCl2",[2]; 8 µM ZnCl2 in MHB,4
same,"MIC, MgCl2",[2]; 1 mM MgCl2 in MHB,8
same,"MIC, KCl",[2]; 4.5 mM KCl in MHB,4
same,"MIC, NaCl",[2]; 150 mM NaCl in MHB,4
same,"MIC, Mix",[2]; all kinds of salts in physiological concentrations,16
same,"MIC, Control","[2]; no added salts, unit not given",4
same,"MIC, Serum 25%","[3]; E. coli ATCC25922, 25% human serum in MHB",4
same,"MIC, Serum 50%","[3]; E. coli ATCC25922, 50% human serum in MHB",16
same,"MIC, Heat 100°C","[3]; E. coli ATCC25922, peptide incubated at 100°C for 1 h",1
same,"MIC, Enzymes Caroid","[3]; E. coli ATCC25922, peptide pre-incubated 1 h at 37°C with 1 mg/ml enzyme (method names papain)",8
same,"MIC, Enzymes Pepsin","[3]; E. coli ATCC25922, peptide pre-incubated 1 h at 37°C with 1 mg/ml pepsin",8
same,"MIC, Enzymes Proteinase K","[3]; E. coli ATCC25922, peptide pre-incubated 1 h at 37°C with 1 mg/ml proteinase K",>128
same,"MIC, Enzymes Trypsin","[3]; E. coli ATCC25922, peptide pre-incubated 1 h at 37°C with 1 mg/ml trypsin",4
same,antimicrobial activity after heat (in words),"[3]; E. coli, incubation at 100°C for approximately 1 h",remained stable
same,MHC,[4],128 µM
same,MIC,[5],2 µM
same,MIC,[6],2 µM
same,MIC,[7],4 µM
same,MIC,[8],2 µM
same,MIC,[9],2 µM
same,MIC,[10],1 µM
same,MIC,[11],1 µM
same,MIC,[12],4 µM
